Test results as given in patent publication US20080319065A1, “Systemic and Intrathecal Effects of a Novel Series of Phospholipase A2 Inhibitors on Hyperalgesia and Spinal Pge2 Release” (The Regents of the University of California, priority 2005, published 2008).

How the values were obtained:
[1] = system: murine RAW 264.7 macrophage-like cell line; assay: Long-term LPS stimulation, PGE2 release; format: cell-based
Experimental: Several 2-oxoamides were tested in the long-term lipopolysaccharide (LPS) stimulation pathway in the murine RAW 264.7 macrophage-like cell line. (Raschke, et al., Cell, 1978, 15, 261-267). This pathway requires GIVA PLA2 activity and results in the extracellular release of many eicosanoid compounds including the prostaglandin PGE2. (Gijon, et al., leukoc. Biol., 1999, 65, 330-336). […] In the low μM range, AX041 and AX073 reduced PGE2 release by roughly 40% (FIG. 1(D)). At 1 μM and 5 μM concentrations, small activations were often seen. The in vitro and cellular results together are consistent with the known roles of GVIA PLA2 given that AX010, a selective GVIA inhibitor, had no cellular effect. […] Inhibitors selective for GIVA PLA2 or dual specificity inhibitors reduce PGE2 levels, also consistent with the known role of GIVA PLA2 in PGE2 production.

[2] = biological target: T1, Group VIA iPLA2 (GVIA PLA2) (Homo sapiens, UniProt O60733); assay: In vitro Group VIA iPLA2 mixed micelle assay; format: biochemical
T1 sequence (O60733 1-806): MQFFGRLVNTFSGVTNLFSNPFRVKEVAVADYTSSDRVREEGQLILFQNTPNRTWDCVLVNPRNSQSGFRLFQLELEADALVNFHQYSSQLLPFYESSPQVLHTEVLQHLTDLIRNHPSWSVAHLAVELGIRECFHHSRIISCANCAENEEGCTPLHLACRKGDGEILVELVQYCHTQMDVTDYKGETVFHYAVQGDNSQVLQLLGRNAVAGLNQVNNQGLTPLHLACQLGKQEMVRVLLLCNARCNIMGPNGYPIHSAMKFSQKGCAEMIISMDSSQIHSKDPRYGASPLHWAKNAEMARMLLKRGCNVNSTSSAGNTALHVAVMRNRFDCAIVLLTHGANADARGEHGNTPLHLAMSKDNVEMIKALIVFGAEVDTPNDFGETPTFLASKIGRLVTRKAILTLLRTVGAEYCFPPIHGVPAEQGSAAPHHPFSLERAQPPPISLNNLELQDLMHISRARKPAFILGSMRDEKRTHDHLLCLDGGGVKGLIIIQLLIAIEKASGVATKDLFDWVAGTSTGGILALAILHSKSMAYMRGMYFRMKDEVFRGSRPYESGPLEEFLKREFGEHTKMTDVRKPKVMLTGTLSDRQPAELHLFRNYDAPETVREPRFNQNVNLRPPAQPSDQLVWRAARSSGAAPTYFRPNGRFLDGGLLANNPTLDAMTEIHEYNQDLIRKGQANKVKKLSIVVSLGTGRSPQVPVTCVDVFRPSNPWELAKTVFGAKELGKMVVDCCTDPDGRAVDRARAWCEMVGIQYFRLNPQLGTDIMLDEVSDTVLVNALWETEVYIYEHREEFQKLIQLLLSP

GV sPLA2 = biological target: T2, GV sPLA2 (Homo sapiens, UniProt P39877); assay: GV sPLA2 activity assay; format: biochemical; details: at 0.091 mole fraction
T2 sequence (P39877 21-138): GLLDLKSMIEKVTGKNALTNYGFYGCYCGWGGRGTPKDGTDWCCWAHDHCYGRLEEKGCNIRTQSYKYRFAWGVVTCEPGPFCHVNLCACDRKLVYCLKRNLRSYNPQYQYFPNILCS

Structure (SMILES) | inhibition of PGE2 release, in words [1] | inhibition of GVIA PLA2 (iPLA2), in words [2] | Group VIA XI(50), class ([2]; at 0.091 mole fraction) | Inhibition of GVIA PLA2 ([2]; at highest dose) | efficacy against sPLA2 (GV sPLA2) [%] | Group VIA XI(50) (mole fraction) ([2]; Table 1b)
CCC(=O)C(=O)NCCCC(=O)OC [AX010] | did not inhibit PGE2 release | limited inhibition of GVIA PLA2 | L.D. (between 25% and 50% inhibition at 0.091 mole fraction) | LD (limited inhibition (25-50%) at highest dose) |  | 
CCCCCCCCCCCCCCC(=O)C(=O)NCCCC(=O)OCC [AX048, Ethyl 4-[(2-oxohexadecanoyl)amino]butanoate] |  |  |  |  | 61.5 | 0.027 ± 0.009
